The values below come from US20040058880A1, “Aminoglycoside antibiotics as novel anti-infective agents” (priority 2002, published 2004).

Test in all cases: In vitro antibacterial MIC, 96-well broth assay
One test deals with P. aeruginosa ATCC 27853. It is filed as cell-based, Pseudomonas aeruginosa. The following applies: growth by A595 after 24 h, 10^5-10^6 CFU/well; for MIC: Pseudomonas aeruginosa, ATCC27853. How it is done: (§1) In Vitro Antibacterial Activity Determination of Minimum Inhibitory Concentrations (MICs).
(§2) The assays are carried out in 96-well flat-bottom plates. The bacterial suspension from an overnight culture grown in appropriate medium is added to a solution of test compound in water. Final bacterial inoculums are approximately 10^5-10^6 CFU/well. The percent growth of bacteria in test wells relative to that observed for a well containing no compound is determined by measuring absorbance at 595 nm (A595) after 24 h. The MIC (μg/mL) is determined as a range of single compound where the complete inhibition of growth is observed at the higher concentration and cells are viable at the lower concentrations. Tobramycin is used as an antibiotic-positive control in each screening assay for Pseudomonas aeruginosa, Acinetobacter species, Streptococci viridans, Proteus species, Hemophilus influenzae, Citrobacter species, Serratia marcescens, Staphylococcus aureus, Streptococcus pyogenes, Escherichia coli, Enterobacter species, Enterococcus faecalis, Enterococcus faecium Klebsiella pneumoniae and Providencia stuartii.

The subject of another test is P. aeruginosa ATCC 35151. It is filed as cell-based, Pseudomonas aeruginosa. The following applies: growth by A595 after 24 h, 10^5-10^6 CFU/well; for MIC: Pseudomonas aeruginosa, ATCC35151. The method, then: as §1, §2
The test system of the next test is P. aeruginosa PAO-1. It is filed as cell-based, Pseudomonas aeruginosa. The settings on record: growth by A595 after 24 h, 10^5-10^6 CFU/well; for MIC: Pseudomonas aeruginosa, PAO1. How it is done: as §1, §2
Test [1] deals with S. aureus ATCC 29213 (MSSA). It is filed as cell-based, Staphylococcus aureus. The following applies: growth by A595 after 24 h, 10^5-10^6 CFU/well; for MIC: Staphylococcus aureus. The method, then: as §1, §2
The subject of test [2] is S. aureus ATCC 33591 (MRSA). It is filed as cell-based, Staphylococcus aureus. The following applies: growth by A595 after 24 h, 10^5-10^6 CFU/well; for MIC: Staphylococcus aureus. How it is done:
as §1, §2

Another test deals with E. coli ATCC 25922. It is filed as cell-based, Escherichia coli. The following applies: growth by A595 after 24 h, 10^5-10^6 CFU/well; for MIC: Escherichia coli, ATCC25922. How it is done:
as §1, §2

Another test relates to E. faecalis ATCC 29212. It is filed as cell-based, Enterococcus faecalis. The settings on record: growth by A595 after 24 h, 10^5-10^6 CFU/well; for MIC: Enterococcus faecalis, ATCC29212. How it is done: as §1, §2

Converted amounts (≈) assume the structure as drawn.

Regarding “4-(2,6-diamino-2,3,6-dideoxy-α-D-glucopyranosyl)-6-(2-amino-2-deoxy-4-amino-4-deoxy-α-D-glucopyranosyl)-2-deoxystreptamine [Compound 3c]”, the “MIC P. aeruginosa ATCC 27853” value in the test with P. aeruginosa ATCC 27853 came out at 2 µg/mL. In the test on P. aeruginosa ATCC 35151, the “MIC P. aeruginosa ATCC 35151” value came out at 1 µg/mL. Also, the “MIC P. aeruginosa PAO-1” value in the test with P. aeruginosa PAO-1 was 1 µg/mL. The “MIC S. aureus ATCC 29213 (MSSA)” value in test [1] stood at 1 µg/mL. In addition, in test [2], the “MIC S. aureus ATCC 33591 (MRSA)” value was greater than 64 µg/mL. For the same molecule, the “MIC E. coli ATCC 25922” value in the test on E. coli ATCC 25922 is 2 µg/mL. The “MIC E. faecalis ATCC 29212” value with E. faecalis ATCC 29212 was 32 µg/mL.
For the molecule “4-(2,6-diamino-2,3,6-dideoxy-α-D-glucopyranosyl)-6-(4-amino-4-deoxy-1-α-D-glucopyranosyl)-2-deoxystreptamine [Compound 3b]”, in the test on P. aeruginosa ATCC 27853, the “MIC P. aeruginosa ATCC 27853” value is 16 µg/mL. Further, the “MIC P. aeruginosa ATCC 35151” value with P. aeruginosa ATCC 35151 stood at 16 µg/mL. For the same molecule, in the test with P. aeruginosa PAO-1, the “MIC P. aeruginosa PAO-1” value was determined as 8 µg/mL. In addition, the “MIC S. aureus ATCC 29213 (MSSA)” value in test [1] was determined as 32 µg/mL. Besides, the “MIC S. aureus ATCC 33591 (MRSA)” value in test [2] is greater than 64 µg/mL. Also, in the test on E. coli ATCC 25922, the “MIC E. coli ATCC 25922” value is 32 µg/mL. Also, the “MIC E. faecalis ATCC 29212” value in the test on E. faecalis ATCC 29212 is greater than 64 µg/mL.
In the case of `NC[C@H]1O[C@H](O[C@H]2[C@H](O)[C@@H](O[C@H]3O[C@H](CO)[C@@H](O)[C@H](O)[C@H]3N)[C@H](N)C[C@@H]2N)[C@H](N)C[C@@H]1O` [Compound 3a, 4-(2,6-diamino-2,3,6-dideoxy-α-D-glucopyranosyl)-6-(2-amino-2-deoxy-1-α-D-glucopyranosyl)-2-deoxystreptamine], the minimal inhibitory concentration (MIC) in the test on P. aeruginosa ATCC 27853 is 1 µg/mL (≈ 2.14 µM); in the test on P. aeruginosa ATCC 35151, 1 µg/mL (≈ 2.14 µM); against P. aeruginosa PAO-1, 0.5 µg/mL (≈ 1.07 µM); in test [1], 1 µg/mL (≈ 2.14 µM); in test [2], greater than 64 µg/mL; in the test with E. coli ATCC 25922, 2 µg/mL (≈ 4.28 µM). The same molecule had a minimal inhibitory concentration (MIC) with E. faecalis ATCC 29212 of 16 µg/mL (≈ 34.2 µM).
With `NCC1OC(OC2C(N)CC(N)C(OC3OC(CO)C(O)C(OC4OC(CO)C(O)C(O)C4N)C3N)C2O)C(N)CC1O` (stereo not drawn) [Compound 3d, 5-Amino-6-{3-amino-2-[4,6-diamino-3-(3-amino-6-aminomethyl-5-hydroxy-tetrahydro-pyran-2-yloxy)-2-hydroxy-cyclohexyloxy]-5-hydroxy-6-hydroxymethyl-tetrahydro-pyran-4-yloxy}-2-hydroxymethyl-tetrahydro-pyran-3,4-diol], the MIC is 64 µg/mL (≈ 102 µM) in the test on P. aeruginosa ATCC 27853; 16 µg/mL (≈ 25.5 µM) in the test with P. aeruginosa ATCC 35151; 32 µg/mL (≈ 50.9 µM) with P. aeruginosa PAO-1; 16 µg/mL (≈ 25.5 µM) in test [1]; greater than 64 µg/mL in test [2]; 32 µg/mL (≈ 50.9 µM) against E. coli ATCC 25922. For the same molecule, the minimum inhibitory concentration (MIC) against E. faecalis ATCC 29212 was greater than 64 µg/mL.
For the molecule `N=C(N)NC[C@H]1O[C@H](O[C@H]2[C@H](O)[C@@H](O[C@H]3O[C@H](CO)[C@@H](O)[C@H](O)[C@H]3N)[C@H](N)C[C@@H]2N)[C@H](N)C[C@@H]1O` [Compound 4a, 4-(2-amino-6-guanidinyl-2,3,6-dideoxy-α-D-glucopyranosyl)-6-(2-amino-2-deoxy-1-α-D-glucopyranosyl)-2-deoxystreptamine], the MIC is greater than 64 µg/mL against P. aeruginosa ATCC 27853; greater than 64 µg/mL in the test on P. aeruginosa ATCC 35151; 64 µg/mL (≈ 126 µM) against P. aeruginosa PAO-1; 64 µg/mL (≈ 126 µM) in test [1]; greater than 64 µg/mL in test [2]; 64 µg/mL (≈ 126 µM) against E. coli ATCC 25922. This molecule yielded a minimal inhibitory concentration (MIC) against E. faecalis ATCC 29212 greater than 64 µg/mL.
On to `NC[C@H]1O[C@H](O[C@H]2[C@H](O)[C@@H](O[C@H]3O[C@H](CNC4CC4)[C@@H](O)[C@H](N)[C@H]3O)[C@H](N)C[C@@H]2N)[C@H](N)C[C@@H]1O` [Compound 9a], for which the minimal inhibitory concentration (MIC) with P. aeruginosa ATCC 27853 came to 64 µg/mL (≈ 126 µM); in the test with P. aeruginosa ATCC 35151 it was 32 µg/mL (≈ 63.2 µM); in the test on P. aeruginosa PAO-1, 32 µg/mL (≈ 63.2 µM); in test [1] it was 8 µg/mL (≈ 15.8 µM); in test [2] it was 8 µg/mL (≈ 15.8 µM); in the test on E. coli ATCC 25922, 32 µg/mL (≈ 63.2 µM). Besides, in the test on E. faecalis ATCC 29212, the minimal inhibitory concentration (MIC) was greater than 64 µg/mL.
For `NC[C@H]1O[C@H](O[C@H]2[C@H](O)[C@@H](OCC(O)CNCCCCNCC(O)CO[C@@H]3[C@@H](O)[C@H](O[C@H]4O[C@H](CN)[C@@H](O)C[C@H]4N)[C@@H](N)C[C@H]3N)[C@H](N)C[C@@H]2N)[C@H](N)C[C@@H]1O` (stereo partly drawn) [Compound 13a], the MIC in the test on P. aeruginosa ATCC 27853 is 2 µg/mL (≈ 2.46 µM); with P. aeruginosa ATCC 35151, 4 µg/mL (≈ 4.92 µM); in the test on P. aeruginosa PAO-1 it was 2 µg/mL (≈ 2.46 µM); in test [1] it was 0.5 µg/mL (≈ 0.615 µM); in test [2], 16 µg/mL (≈ 19.7 µM); against E. coli ATCC 25922 it was 4 µg/mL (≈ 4.92 µM). 32 µg/mL (≈ 39.4 µM) was the least that counted as inhibitory against E. faecalis ATCC 29212 (MIC).
Turning to `NCCCCNCC(O)CO[C@@H]1[C@@H](O)[C@H](O[C@H]2O[C@H](CN)[C@@H](O)C[C@H]2N)[C@@H](N)C[C@H]1N` (stereo partly drawn) [Compound 14a], the MIC in the test on P. aeruginosa ATCC 27853 was 32 µg/mL (≈ 71 µM); in the test on P. aeruginosa ATCC 35151, 16 µg/mL (≈ 35.5 µM); with P. aeruginosa PAO-1 it was 16 µg/mL (≈ 35.5 µM); in test [1] it was 8 µg/mL (≈ 17.8 µM); in test [2], greater than 64 µg/mL; with E. coli ATCC 25922 it was 16 µg/mL (≈ 35.5 µM). Besides, the MIC against E. faecalis ATCC 29212 is greater than 64 µg/mL.
`NC[C@H]1O[C@H](O[C@H]2[C@H](O)[C@@H](OCCCNCCCCNCCCO[C@@H]3[C@@H](O)[C@H](O[C@H]4O[C@H](CN)[C@@H](O)C[C@H]4N)[C@@H](N)C[C@H]3N)[C@H](N)C[C@@H]2N)[C@H](N)C[C@@H]1O` [Compound 18a]: the minimal inhibitory concentration (MIC) against P. aeruginosa ATCC 27853 is 16 µg/mL (≈ 20.5 µM); against P. aeruginosa ATCC 35151 it was 32 µg/mL (≈ 41 µM); with P. aeruginosa PAO-1 it was 8 µg/mL (≈ 10.2 µM); in test [1] it was 4 µg/mL (≈ 5.12 µM); in test [2], 32 µg/mL (≈ 41 µM); in the test on E. coli ATCC 25922, 16 µg/mL (≈ 20.5 µM). In addition, the MIC with E. faecalis ATCC 29212 was greater than 64 µg/mL.
Take `NCCCCNCCCO[C@@H]1[C@@H](O)[C@H](O[C@H]2O[C@H](CN)[C@@H](O)C[C@H]2N)[C@@H](N)C[C@H]1N` [Compound 19a]: the MIC (in the test on P. aeruginosa ATCC 27853; against P. aeruginosa ATCC 35151; in the test with P. aeruginosa PAO-1; in test [1]; in test [2]; against E. coli ATCC 25922) was greater than 32 µg/mL each time. In addition, in the test with E. faecalis ATCC 29212, the minimal inhibitory concentration (MIC) is greater than 32 µg/mL.
For the molecule `NC[C@H]1O[C@H](O[C@H]2[C@H](OCC(O)CNCCCCNCC(O)CO[C@@H]3[C@@H](O)[C@H](N)C[C@H](N)[C@H]3O[C@H]3O[C@H](CN)[C@@H](O)C[C@H]3N)[C@@H](O)[C@H](N)C[C@@H]2N)[C@H](N)C[C@@H]1O` (stereo partly drawn) [Compound 27a], the MIC came out at 4 µg/mL (≈ 4.92 µM) in the test with P. aeruginosa ATCC 27853; 8 µg/mL (≈ 9.84 µM) against P. aeruginosa ATCC 35151; 4 µg/mL (≈ 4.92 µM) in the test with P. aeruginosa PAO-1; 2 µg/mL (≈ 2.46 µM) in test [1]; 16 µg/mL (≈ 19.7 µM) in test [2]; 16 µg/mL (≈ 19.7 µM) against E. coli ATCC 25922. This molecule displayed an MIC in the test with E. faecalis ATCC 29212 of 32 µg/mL (≈ 39.4 µM).
As for `NC[C@H]1O[C@H](O[C@H]2[C@H](O)[C@@H](O[C@H]3O[C@H](CO)[C@@H](O)[C@H](N)[C@H]3O)[C@H](N)C[C@@H]2N)[C@H](N)C[C@@H]1O` [Tobramycin, reference compound], the MIC in the test on P. aeruginosa ATCC 27853 is 0.5 µg/mL (≈ 1.07 µM); in the test on P. aeruginosa ATCC 35151, 0.5 µg/mL (≈ 1.07 µM); against P. aeruginosa PAO-1 it was 0.25 µg/mL (≈ 0.535 µM); in test [1], 0.5 µg/mL (≈ 1.07 µM); in test [2] it was greater than 64 µg/mL; against E. coli ATCC 25922 it was 1 µg/mL (≈ 2.14 µM). In addition, it took 16 µg/mL (≈ 34.2 µM) to inhibit growth in the test on E. faecalis ATCC 29212 (MIC).

Broadly, the MIC is the least concentration at which growth counts as inhibited. A higher MIC goes with a need for much substance.
